Experimental data reported in PMC10408569, “Recruitment of hexahydroquinoline as anticancer scaffold targeting inhibition of wild and mutants EGFR (EGFR^WT, EGFR^T790M, and EGFR^L858R)” (Journal of Enzyme Inhibition and Medicinal Chemistry, 2023).

How the values were obtained:
SK-MEL-28 = assay: NCI-60 anticancer screening (SRB); type: cell-based; settings: Homo sapiens; SK-MEL-28, melanoma; one dose 10 μM; read-out: Growth Inhibition Percentage (GI %)
ACHN = assay: NCI-60 anticancer screening (SRB); type: cell-based; settings: Homo sapiens, renal cancer, one dose 10 μM, read-out: Growth Inhibition Percentage (GI %)
HS 578T = assay: NCI-60 anticancer screening (SRB); type: cell-based; settings: Homo sapiens; HS 578T, breast cancer; one dose 10 μM; read-out: Growth Inhibition Percentage (GI %)
OVCAR-4 = assay: NCI-60 anticancer screening (SRB); type: cell-based; settings: Homo sapiens; OVCAR-4, ovarian cancer; one dose 10 μM; read-out: Growth Inhibition Percentage (GI %)
RPMI-8226 = assay: NCI-60 anticancer screening (SRB); type: cell-based; settings: Homo sapiens; RPMI-8226, leukemia; one dose 10 μM; read-out: Growth Inhibition Percentage (GI %)
UO-31 = assay: NCI-60 anticancer screening (SRB); type: cell-based; settings: Homo sapiens; UO-31, renal cancer; one dose 10 μM; read-out: Growth Inhibition Percentage (GI %)
EGFR^L858R = EGFR^L858R (Homo sapiens, UniProt P00533, L858R); assay: biochemical
HOP-92 = assay: NCI-60 anticancer screening (SRB); type: cell-based; settings: Homo sapiens; HOP-92, NSC lung cancer; one dose 10 μM; read-out: Growth Inhibition Percentage (GI %)
MALME-3M = assay: NCI-60 anticancer screening (SRB); type: cell-based; settings: Homo sapiens, melanoma, one dose 10 μM, read-out: Growth Inhibition Percentage (GI %)
OVCAR-8 = assay: NCI-60 anticancer screening (SRB); type: cell-based; settings: Homo sapiens; OVCAR-8, ovarian cancer; one dose 10 μM; read-out: Growth Inhibition Percentage (GI %)
EGFR^T790M = EGFR^T790M (Homo sapiens, UniProt P00533, T790M); assay: biochemical
UACC-62 = assay: NCI-60 anticancer screening (SRB); type: cell-based; settings: Homo sapiens; UACC-62, melanoma; one dose 10 μM; read-out: Growth Inhibition Percentage (GI %)
HOP-62 = assay: NCI-60 anticancer screening (SRB); type: cell-based; settings: Homo sapiens; HOP-62, NSC lung cancer; one dose 10 μM; read-out: Growth Inhibition Percentage (GI %)
SF-295 = assay: NCI-60 anticancer screening (SRB); type: cell-based; settings: Homo sapiens; SF-295, CNS cancer; one dose 10 μM; read-out: Growth Inhibition Percentage (GI %)
MOLT-4 = assay: NCI-60 anticancer screening (SRB); type: cell-based; settings: Homo sapiens; MOLT-4, leukemia; one dose 10 μM; read-out: Growth Inhibition Percentage (GI %)
SF-539 = assay: NCI-60 anticancer screening (SRB); type: cell-based; settings: Homo sapiens; SF-539, CNS cancer; one dose 10 μM; read-out: Growth Inhibition Percentage (GI %)
CAKI-1 = assay: NCI-60 anticancer screening (SRB); type: cell-based; settings: Homo sapiens; CAKI-1, renal cancer; one dose 10 μM; read-out: Growth Inhibition Percentage (GI %)
OVCAR-3 = assay: NCI-60 anticancer screening (SRB); type: cell-based; settings: Homo sapiens; OVCAR-3, ovarian cancer; one dose 10 μM; read-out: Growth Inhibition Percentage (GI %)
NCI-H460 = assay: NCI-60 anticancer screening (SRB); type: cell-based; settings: Homo sapiens; NCI-H460, NSC lung cancer; one dose 10 μM; read-out: Growth Inhibition Percentage (GI %)
SNB-19 = assay: NCI-60 anticancer screening (SRB); type: cell-based; settings: Homo sapiens; SNB-19, CNS cancer; one dose 10 μM; read-out: Growth Inhibition Percentage (GI %)
MDA-MB-435 = assay: NCI-60 anticancer screening (SRB); type: cell-based; settings: Homo sapiens; MDA-MB-435, melanoma; one dose 10 μM; read-out: Growth Inhibition Percentage (GI %)
A549/ATCC = assay: NCI-60 anticancer screening (SRB); type: cell-based; settings: Homo sapiens; A549/ATCC, NSC lung cancer; one dose 10 μM; read-out: Growth Inhibition Percentage (GI %)
EGFR^WT = EGFR^WT (Homo sapiens, UniProt P00533); assay: EGFR kinase inhibitory assay (HTRF)
HCC-2998 = assay: NCI-60 anticancer screening (SRB); type: cell-based; settings: Homo sapiens; HCC-2998, colon cancer; one dose 10 μM; read-out: Growth Inhibition Percentage (GI %)
DU-145 = assay: NCI-60 anticancer screening (SRB); type: cell-based; settings: Homo sapiens; DU-145, prostate cancer; one dose 10 μM; read-out: Growth Inhibition Percentage (GI %)
HT29 = assay: NCI-60 anticancer screening (SRB); type: cell-based; settings: Homo sapiens, HT-29; HT29, colon cancer; one dose 10 μM; read-out: Growth Inhibition Percentage (GI %)
SN 12C = assay: NCI-60 anticancer screening (SRB); type: cell-based; settings: Homo sapiens, SN12C; SN 12C, renal cancer; one dose 10 μM; read-out: Growth Inhibition Percentage (GI %)
SK-MEL-5 = assay: NCI-60 anticancer screening (SRB); type: cell-based; settings: Homo sapiens; SK-MEL-5, melanoma; one dose 10 μM; read-out: Growth Inhibition Percentage (GI %)
EKVX = assay: NCI-60 anticancer screening (SRB); type: cell-based; settings: Homo sapiens, NSC lung cancer, one dose 10 μM, read-out: Growth Inhibition Percentage (GI %)
NCI-H522 = assay: NCI-60 anticancer screening (SRB); type: cell-based; settings: Homo sapiens; NCI-H522, NSC lung cancer; one dose 10 μM; read-out: Growth Inhibition Percentage (GI %)

Chain of EGFR^L858R (P00533 25-1210 L858R): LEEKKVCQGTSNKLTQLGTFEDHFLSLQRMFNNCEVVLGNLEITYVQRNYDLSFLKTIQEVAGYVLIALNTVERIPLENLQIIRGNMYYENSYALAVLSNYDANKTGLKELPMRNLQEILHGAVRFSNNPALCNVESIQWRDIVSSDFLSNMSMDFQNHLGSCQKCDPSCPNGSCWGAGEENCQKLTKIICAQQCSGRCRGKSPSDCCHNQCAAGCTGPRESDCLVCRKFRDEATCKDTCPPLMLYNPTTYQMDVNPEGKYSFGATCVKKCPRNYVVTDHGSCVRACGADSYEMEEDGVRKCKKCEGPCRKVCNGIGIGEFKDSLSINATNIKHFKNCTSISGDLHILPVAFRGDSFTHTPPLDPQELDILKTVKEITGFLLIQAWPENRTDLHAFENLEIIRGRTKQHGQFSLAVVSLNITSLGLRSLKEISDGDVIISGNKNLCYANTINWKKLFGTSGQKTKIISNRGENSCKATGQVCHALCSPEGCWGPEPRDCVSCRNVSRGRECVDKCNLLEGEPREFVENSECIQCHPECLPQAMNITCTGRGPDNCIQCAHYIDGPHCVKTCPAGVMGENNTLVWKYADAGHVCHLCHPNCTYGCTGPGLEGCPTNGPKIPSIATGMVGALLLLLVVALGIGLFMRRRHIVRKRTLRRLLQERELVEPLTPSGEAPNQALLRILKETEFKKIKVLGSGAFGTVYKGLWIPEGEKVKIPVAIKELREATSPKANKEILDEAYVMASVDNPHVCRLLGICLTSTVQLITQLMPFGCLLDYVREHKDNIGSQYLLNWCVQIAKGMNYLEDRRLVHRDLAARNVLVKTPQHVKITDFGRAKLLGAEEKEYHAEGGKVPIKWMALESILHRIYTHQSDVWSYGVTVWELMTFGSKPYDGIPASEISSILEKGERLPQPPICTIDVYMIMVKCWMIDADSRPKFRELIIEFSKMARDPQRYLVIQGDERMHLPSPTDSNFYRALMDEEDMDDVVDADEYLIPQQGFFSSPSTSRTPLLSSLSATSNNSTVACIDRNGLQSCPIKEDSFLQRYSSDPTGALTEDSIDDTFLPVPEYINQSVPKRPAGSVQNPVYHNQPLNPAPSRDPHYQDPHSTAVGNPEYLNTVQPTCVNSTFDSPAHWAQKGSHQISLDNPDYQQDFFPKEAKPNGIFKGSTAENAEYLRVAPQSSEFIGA
Chain of EGFR^T790M (P00533 25-1210 T790M): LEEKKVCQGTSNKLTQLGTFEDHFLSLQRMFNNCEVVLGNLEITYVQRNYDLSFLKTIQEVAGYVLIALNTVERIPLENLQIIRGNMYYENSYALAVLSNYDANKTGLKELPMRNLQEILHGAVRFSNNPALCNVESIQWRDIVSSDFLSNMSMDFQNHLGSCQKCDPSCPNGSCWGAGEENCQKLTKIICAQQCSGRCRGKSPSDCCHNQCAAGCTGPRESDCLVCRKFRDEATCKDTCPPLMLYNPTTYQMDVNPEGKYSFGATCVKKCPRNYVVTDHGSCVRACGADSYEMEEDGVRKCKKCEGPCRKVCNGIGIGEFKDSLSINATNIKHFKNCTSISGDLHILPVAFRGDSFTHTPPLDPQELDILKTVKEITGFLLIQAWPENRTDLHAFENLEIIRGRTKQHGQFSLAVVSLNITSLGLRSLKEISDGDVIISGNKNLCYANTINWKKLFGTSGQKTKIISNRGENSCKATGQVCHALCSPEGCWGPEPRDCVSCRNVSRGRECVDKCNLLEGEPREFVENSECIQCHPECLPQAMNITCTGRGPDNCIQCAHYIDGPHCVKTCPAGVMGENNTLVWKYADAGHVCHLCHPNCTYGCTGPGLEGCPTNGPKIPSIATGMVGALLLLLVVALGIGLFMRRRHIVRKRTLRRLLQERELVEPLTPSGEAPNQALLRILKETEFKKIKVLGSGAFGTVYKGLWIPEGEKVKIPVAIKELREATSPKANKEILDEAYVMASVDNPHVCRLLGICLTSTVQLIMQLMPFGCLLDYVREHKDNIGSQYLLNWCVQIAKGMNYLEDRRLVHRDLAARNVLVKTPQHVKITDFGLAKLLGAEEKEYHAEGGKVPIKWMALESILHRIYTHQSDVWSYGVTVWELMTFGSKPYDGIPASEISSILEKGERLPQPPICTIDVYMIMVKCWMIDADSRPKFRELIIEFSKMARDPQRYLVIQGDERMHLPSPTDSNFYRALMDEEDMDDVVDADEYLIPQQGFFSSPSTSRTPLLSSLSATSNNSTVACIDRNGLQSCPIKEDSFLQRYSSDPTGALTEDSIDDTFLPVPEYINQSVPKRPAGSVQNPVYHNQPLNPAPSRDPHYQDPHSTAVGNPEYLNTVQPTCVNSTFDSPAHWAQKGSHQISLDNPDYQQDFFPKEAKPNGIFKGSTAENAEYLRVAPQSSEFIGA
Chain of EGFR^WT (P00533 25-1210): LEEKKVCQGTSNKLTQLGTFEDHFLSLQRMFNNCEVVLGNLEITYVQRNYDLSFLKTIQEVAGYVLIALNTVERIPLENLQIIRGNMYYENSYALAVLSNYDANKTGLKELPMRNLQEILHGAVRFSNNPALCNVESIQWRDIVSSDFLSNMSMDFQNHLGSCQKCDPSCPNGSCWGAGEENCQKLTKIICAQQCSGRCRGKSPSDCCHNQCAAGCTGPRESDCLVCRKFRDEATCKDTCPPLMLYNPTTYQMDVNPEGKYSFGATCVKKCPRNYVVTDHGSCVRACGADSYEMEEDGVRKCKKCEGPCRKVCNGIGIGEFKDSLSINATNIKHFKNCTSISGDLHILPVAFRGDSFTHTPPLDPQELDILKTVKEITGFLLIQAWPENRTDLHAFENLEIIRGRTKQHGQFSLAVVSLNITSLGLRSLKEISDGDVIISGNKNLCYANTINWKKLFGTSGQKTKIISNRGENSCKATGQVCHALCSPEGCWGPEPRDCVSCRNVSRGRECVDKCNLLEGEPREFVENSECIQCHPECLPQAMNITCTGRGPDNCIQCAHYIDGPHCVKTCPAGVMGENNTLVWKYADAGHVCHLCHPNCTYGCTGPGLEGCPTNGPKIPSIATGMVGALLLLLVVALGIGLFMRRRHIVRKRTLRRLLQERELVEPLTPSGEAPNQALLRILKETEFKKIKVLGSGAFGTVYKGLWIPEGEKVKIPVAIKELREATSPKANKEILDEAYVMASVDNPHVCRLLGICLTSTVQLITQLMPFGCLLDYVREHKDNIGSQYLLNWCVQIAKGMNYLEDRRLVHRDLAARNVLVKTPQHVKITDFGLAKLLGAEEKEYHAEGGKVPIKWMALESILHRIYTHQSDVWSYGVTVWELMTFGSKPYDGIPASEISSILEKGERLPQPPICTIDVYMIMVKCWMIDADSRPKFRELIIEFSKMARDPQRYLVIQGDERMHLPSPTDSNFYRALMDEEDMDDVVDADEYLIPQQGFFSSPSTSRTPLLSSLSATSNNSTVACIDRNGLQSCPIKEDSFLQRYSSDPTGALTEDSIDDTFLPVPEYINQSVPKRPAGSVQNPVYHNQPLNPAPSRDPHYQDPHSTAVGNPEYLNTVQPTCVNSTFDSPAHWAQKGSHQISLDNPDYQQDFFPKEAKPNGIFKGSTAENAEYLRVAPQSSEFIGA

Structure (SMILES) | inhibition at 10 µM (SK-MEL-28) | inhibition at 10 µM (ACHN) | inhibition at 10 µM (HS 578T) | inhibition at 10 µM (OVCAR-4) | inhibition at 10 µM (RPMI-8226) | inhibition at 10 µM (UO-31) | IC50 (EGFR^L858R) | inhibition at 10 µM (HOP-92) | inhibition at 10 µM (MALME-3M) | inhibition at 10 µM (OVCAR-8) | IC50 (EGFR^T790M) | inhibition at 10 µM (UACC-62) | inhibition at 10 µM (HOP-62) | inhibition at 10 µM (SF-295) | inhibition at 10 µM (MOLT-4) | inhibition at 10 µM (SF-539) | inhibition at 10 µM (CAKI-1) | inhibition at 10 µM (OVCAR-3) | inhibition at 10 µM (NCI-H460) | inhibition at 10 µM (SNB-19) | further results
CCOC(=O)C1=C(N)N(c2ccc(Cl)cc2)C2=C(C(=O)CC(C)(C)C2)C1c1ccc(Cl)cc1 (racemic) [8e, (±)-Ethyl 2-amino-1,4-bis (4-chlorophenyl)-7,7-dimethyl-5-oxo-1,4,5,6,7,8-hexahydroquinoline-3-carboxylate] | 26% | 32% | 44% | 54% | 90% | 34% | 351 ± 2 nM | < 10% | 39% | 30% | 693 ± 5 nM | 28% | < 10% | 33% | 89% | 26% | 19% | 16% | 59% | 31% | inhibition at 10 µM (MDA-MB-435): 54%; inhibition at 10 µM (A549/ATCC): 62%; melting point: 220 to 222 °C; IC50 (EGFR^WT): 300 ± 120 nM; inhibition at 10 µM (HCC-2998): 11%; inhibition at 10 µM (DU-145): 12%; inhibition at 10 µM (HT29): 46%; inhibition at 10 µM (SN 12C): < 10%; inhibition at 10 µM (SK-MEL-5): 46%; inhibition at 10 µM (EKVX): 33%; inhibition at 10 µM (NCI-H522): 19%
CCOC(=O)C1=C(N)N(c2ccccc2)C2=C(C(=O)CC(C)(C)C2)C1c1cccc(Cl)c1Cl (racemic) [10a, (±)-Ethyl 2-amino-4–(2,3-dichlorophenyl)-7,7-dimethyl-5-oxo-1-phenyl-1,4,5,6,7,8-hexahydroquinoline-3-carboxylate] | < 10% | 42% | < 10% | 34% | 49% | 25% | 490 ± 3 nM | 101% | 19% | 41% | 532 ± 4 nM | 44% | 59% | 46% | 60% | 67% | 53% | 13% | 39% | 58% | inhibition at 10 µM (MDA-MB-435): 13%; inhibition at 10 µM (A549/ATCC): 39%; melting point: 235 to 237 °C; IC50 (EGFR^WT): 145 ± 30 nM; inhibition at 10 µM (HCC-2998): 13%; inhibition at 10 µM (DU-145): 19%; inhibition at 10 µM (HT29): 27%; inhibition at 10 µM (SN 12C): 37%; inhibition at 10 µM (SK-MEL-5): 22%; inhibition at 10 µM (EKVX): 42%; inhibition at 10 µM (NCI-H522): 25%
CCOC(=O)C1=C(N)N(c2ccc(Cl)cc2)C2=C(C(=O)CC(C)(C)C2)C1c1cccc(Cl)c1Cl (racemic) [10b, (±)-Ethyl 2-amino-1–(4-chorophenyl)-4–(2,3-dichlorophenyl)-7,7-dimethyl-5-oxo-1-phenyl-1,4,5,6,7,8-hexahydroquinoline-3-carboxylate] | 16% | 54% | < 10% | 28% | 73% | 49% | 878 ± 6 nM | 30% | 20% | 25% | 954 ± 8 nM | 34% | 16% | 26% | 70% | 22% | 53% | 44% | 53% | 22% | inhibition at 10 µM (MDA-MB-435): 25%; inhibition at 10 µM (A549/ATCC): 34%; melting point: 250 to 252 °C; IC50 (EGFR^WT): 205 ± 90 nM; inhibition at 10 µM (HCC-2998): 18%; inhibition at 10 µM (DU-145): 18%; inhibition at 10 µM (HT29): 32%; inhibition at 10 µM (SN 12C): 35%; inhibition at 10 µM (SK-MEL-5): 40%; inhibition at 10 µM (EKVX): 58%; inhibition at 10 µM (NCI-H522): 30%
